Laboratory results from patent US10098888B2, “Substituted benzene compounds” (Epizyme, Inc., priority 2012, dated 2018).
Like-named read-outs stand apart in the source and are kept apart here. Values belong to the compound of their own block, whether it stands above or below them.

Legend:
CYP3A4/5 = experiment: Time-Dependent Inactivation (TDI) assessment of CYP3A4/5; assay type: in vitro ADME, human; details: for inactivation of CYP3A4/5 (conclusion in words): using midazolam as probe
Karpas-422 xenograft = experiment: Efficacy study in Karpas-422 xenograft model; assay type: in vivo; details: mice, p.o. BID, up to 28 days
Experimental: (§1) The animals were fed ad libitum water (reverse osmosis 1 ppm Cl) and NIH 31 Modified and Irradiated Lab Diet® consisting of 18.0% crude protein, 5.0% crude fat, and 5.0% crude fiber. The mice were housed on irradiated Enrich-o'cobs™ bedding in static microisolators on a 12-hour light cycle at 20-22° C. (68-72° F.) and 40-60% humidity. Alf procedures complied with the recommendations of the Guide for Care and Use of Laboratory Animals with respect to restraint, husbandry, surgical procedures, feed and fluid regulation, and veterinary care.
Human lymphoma cell lines line were obtained from different sources (ATCC, DSMZ), e.g., Karpas-422 obtained from DSMZ. […]
Human lymphoma cell lines, e.g., Karpas-422 cells, were harvested during mid-log phase growth, and re-suspended in […] base media and 50% Matrigel™ (BD Biosciences) (RPMI:Matrigel=1:1). […] Tumor size, in mm^3, was calculated from: […]
(§2) Mice were treated at compound doses ranging from 62.5-500 mg/kg on a BID (2 times a day every 12 h) schedule for various amounts of days by oral gavage. Each dose was delivered in a volume of 0.2 mL/20 g mouse (10 mL/kg), and adjusted for the last recorded weight of individual animals. […]
Treatment efficacy was determined on the last treatment day, MTV(n), the median tumor volume for the number of animals, n, evaluable on the last day, was determined for each group. […]

[1] = Tolerability in Karpas-422 xenograft tumor bearing mice (body weight); assay type: in vivo; details: Karpas-422 xenograft mice, p.o. BID, up to 28 days
Experimental: as §1
Test compounds were stored at room temperature and protected from light. On each treatment day, fresh compound formulations were prepared by suspending the powders in 0.5% sodium carboxymethylcellulose (NaCMC) and 0.1% Tween® 80 in deionized water. […]
as §2
In order to test whether a compound could induce an anti-tumor effect in vivo, Karpas-422 xenograft tumor bearing mice were treated with a compound at, e.g., 62.5, 125, 250, or 500 mg/kg BID for 28 days. […] The tumor growth over the treatment course of 28 days for vehicle and test compound treated groups was measured.

CYP1A = experiment: CYP induction in cryopreserved human hepatocytes, CYP1A; details: 48 hours, positive control β-naphthoflavone
CYP2B6 = experiment: CYP induction in cryopreserved human hepatocytes, CYP2B6; details: 1 μm, 48 hours, positive control phenobarbital
[2] = test system: human cytochromes P450 (CYP); experiment: Assessment of CYP inhibition, overall conclusion on reversible inhibition; details: human liver microsomes
WSU-DLCL2 cells = experiment: Cell Proliferation Analysis (WSU-DLCL2, Cell Titer Glo); assay type: cell-based; details: Homo sapiens, WSUDLCL2, 6 days
[3] = pH 7.4, probe testosterone, time-dependent inactivation of CYP3A4/5, human liver microsomes, read-out: KI

SMILES: CCN(c1cc(-c2ccc(OCCOC)cc2)cc(C(=O)NCc2c(C)cc(C)[nH]c2=O)c1C)[C@H]1CC[C@H](N(C)C)CC1 [Compound 1, N-((4,6-dimethyl-2-oxo-1,2-dihydropyridin-3-yl)methyl)-5-(((trans)-4-(dimethytamino)-cyclohexyl)(ethyl)-amino)-4′-(2-methoxyethoxy)-4-methyl-[1,1′-biphenyl]-3-carboxamide]
- Ki (CYP3A4/5; human, human liver microsomes, pH 7.4, time-dependent inactivation of CYP3A4/5, footnote ** not given, read-out: KI (value in parentheses marked **)): 3.3 µM
- Ki (CYP3A4/5; [3]): 6.4 µM
- inactivation of CYP3A4/5 (conclusion in words) (CYP3A4/5): time-, concentration-, and NADPII-dependent inactivation of CYP3A4/5
- antitumor effect in Karpas-422 xenograft model (Karpas-422 xenograft): tumor stasis and regression
- tolerability [1]: well tolerated
- CYP1A % Positive Control (CYP1A; 1 μm): 2.8%
- CYP1A % Positive Control (CYP1A; 10 μm): 3.0%
- CYP2B6 % Positive Control (CYP2B6): 18.0%
- reversible CYP inhibition (conclusion in words) [2]: no significant reversible inhibition

SMILES: CCN(c1cc(C#CCN2CCOCC2)cc(C(=O)NCc2c(C)cc(C)[nH]c2=O)c1C)[C@H]1CC[C@H](N(C)CCOC)CC1 [Compound 2, N-((4,6-dimethyl-2-oxo-1,2-dihydropyridin-3-yl)methyl)-3-(ethyl((trans)-4-((2-methoxyethyl)(methyl)amino)cyclohexyl)amino)-2-methyl-5-(3-morpholinoprop-1-yn-1-yl)benzamide]
- IC50 (WSU-DLCL2 cells): 385 nM
- Ki (CYP3A4/5; [3]): 22.3 µM
- inactivation of CYP3A4/5 (conclusion in words) (CYP3A4/5): time-, concentration-, and NADPII-dependent inactivation of CYP3A4/5
- reversible CYP inhibition (conclusion in words) [2]: no significant reversible inhibition

- Ki (CYP3A4/5; [3]): 10.2 µM
- CYP1A % Positive Control (CYP1A; 1 μm): 3.0%
- CYP1A % Positive Control (CYP1A; 10 μm): 4.4%
SMILES: CCN(c1cc(C#CC2CCN(C)CC2)cc(C(=O)NCc2c(C)cc(C)[nH]c2=O)c1C)C1CCOCC1 [Compound 105, N-((4,6-Dimethyl-2-oxo-1,2-dihydropyridin-3-yl)methyl)-3-(ethyl(tetrahydro-2H-pyran-4-yl)amino)-2-methyl-5-((1-methylpiperidin-4-yl)ethynyl)benzamide]
- inactivation of CYP3A4/5 (conclusion in words) (CYP3A4/5): time-, concentration-, and NADPII-dependent inactivation of CYP3A4/5
- reversible CYP inhibition (conclusion in words) [2]: potentially significant inhibition of CYP2D6 and CYP3A4 (midazolam)
